Data: patent US20250304549A1, “HYDROXYAMIDE DERIVATIVE AND USE THEREOF” (SICHUAN HUIYU PHARMACEUTICAL CO., LTD., priority 2022, published 2025)
Structures can show the parent of a compound that is named as a salt.

Tests used:
LSD1 = LSD1 (Homo sapiens (Human), UniProt O60341); assay: In vitro enzyme inhibition assay - LSD1 (HTRF); format: biochemical
pan-HDAC = assay: In vitro enzyme inhibition assay - HDAC (HDAC-Glo I/II), pan-HDAC; format: biochemical
Outline: (§1)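 Inhibition was measured with the HDAC-Glo I/II luminescent assay, testing compound as an 8-point, 5-fold dilution series from a 1 mM DMSO stock. Luminescence (RLU) was normalized to no-inhibitor and no-enzyme controls, and IC50 was derived by four-parameter variable-slope fitting.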

DU145 cells = assay: In vitro cell inhibition assay - DU145 cell proliferation (CellTiter-Glo); format: cell-based; settings: Homo sapiens, DU-145, Du145 prostate cancer cell proliferation
Outline: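 Viability read-out was CellTiter-Glo luminescence after a 6-day, 37° C exposure of DU145 cells (1×10^3/well, 10% FBS RPMI-640) to 8 compound concentrations in 5-fold steps.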

HDAC1 = HDAC1 (Homo sapiens (Human), UniProt Q13547); assay: In vitro enzyme inhibition assay - HDAC (HDAC-Glo I/II), HDAC1; format: biochemical; settings: read-out: HDAC IC50 (nM) HDAC 1
Outline: as §1

NCI-H1417 cells = assay: In vitro cell inhibition assay - H1417 cell proliferation (CellTiter-Glo); format: cell-based; settings: Homo sapiens, NCI-H1417, H1417 small cell lung cancer cell proliferation
Outline: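 Cells exposed to 8 compound concentrations (5-fold dilutions) in BEGM with 10% FBS for 7 days at 37° C., 5% CO2. Viable cells measured by CellTiter-Glo luminescence; inhibition versus no-inhibitor and no-cell controls, IC50 fitted.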

HDAC8 = HDAC8 (Homo sapiens (Human), UniProt Q9BY41); assay: In vitro enzyme inhibition assay - HDAC (HDAC-Glo I/II), HDAC8; format: biochemical; settings: read-out: HDAC IC50 (nM) HDAC 8
Outline: as §1

NCI-H69 cells = assay: In vitro cell inhibition assay - NCI-H69 cell proliferation (CellTiter-Glo); format: cell-based; settings: Homo sapiens, NCI-H69, H69 small cell lung cancer cell proliferation
Outline: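 Over 7 days at 37° C. and 5% CO2, cells grew in RPMI-640 supplemented with 20% FBS in the presence of eight 5-fold-spaced compound concentrations.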

NCI-H526 cells = assay: In vitro cell inhibition assay - NCI-H526 cell proliferation (CellTiter-Glo); format: cell-based; settings: Homo sapiens, NCI-H526, 120 h, H526 small cell lung cancer cell proliferation, 5 days
Outline: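 NCI-H526 cells plated at 1×10^3 per well overnight, then treated with 8 concentrations (5-fold dilutions) in RPMI-640 with 10% FBS for 5 days at 37° C., 5% CO2. Viable cells quantified by CellTiter-Glo luminescence; IC50 fitted from inhibition rates relative to no-inhibitor and no-cell controls.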

Sequence of HDAC1 (Q13547 whole entry): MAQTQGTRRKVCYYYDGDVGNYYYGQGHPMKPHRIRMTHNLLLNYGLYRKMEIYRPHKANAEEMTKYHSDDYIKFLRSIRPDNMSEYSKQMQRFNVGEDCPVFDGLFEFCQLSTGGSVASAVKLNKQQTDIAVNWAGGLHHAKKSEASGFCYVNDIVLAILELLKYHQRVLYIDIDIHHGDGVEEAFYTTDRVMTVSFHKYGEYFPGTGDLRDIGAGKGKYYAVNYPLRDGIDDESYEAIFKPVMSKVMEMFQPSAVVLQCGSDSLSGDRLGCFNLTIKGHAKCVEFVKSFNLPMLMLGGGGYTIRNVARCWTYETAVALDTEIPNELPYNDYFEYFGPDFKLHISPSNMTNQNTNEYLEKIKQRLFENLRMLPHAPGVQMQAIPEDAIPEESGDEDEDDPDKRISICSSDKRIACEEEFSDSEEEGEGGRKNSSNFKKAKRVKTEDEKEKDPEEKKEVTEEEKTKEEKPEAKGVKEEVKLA
Sequence of HDAC8 (Q9BY41 whole entry): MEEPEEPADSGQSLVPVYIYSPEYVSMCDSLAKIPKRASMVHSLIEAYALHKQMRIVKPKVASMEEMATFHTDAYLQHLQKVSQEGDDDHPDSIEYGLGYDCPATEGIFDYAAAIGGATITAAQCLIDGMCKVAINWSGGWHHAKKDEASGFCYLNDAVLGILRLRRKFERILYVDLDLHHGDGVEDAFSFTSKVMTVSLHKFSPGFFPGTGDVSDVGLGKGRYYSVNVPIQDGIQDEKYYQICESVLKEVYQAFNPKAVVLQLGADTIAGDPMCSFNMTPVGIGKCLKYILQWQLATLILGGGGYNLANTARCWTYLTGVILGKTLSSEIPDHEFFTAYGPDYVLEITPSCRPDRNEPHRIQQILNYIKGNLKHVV

| IC50 (LSD1) [nM] | IC50 (pan-HDAC) [nM] | IC50 (DU145 cells) [nM] | IC50 (HDAC1) [nM] | IC50 (NCI-H1417 cells) [nM] | IC50 (HDAC8) [nM] | IC50 (NCI-H69 cells) [nM] | IC50 (NCI-H526 cells) [nM] | Structure (SMILES) |
| --- | --- | --- | --- | --- | --- | --- | --- | --- |
| 4.25 | 18.1 | 2830 | 39.9 | 206 | 65.8 | 1500 | – | COc1ccc(-c2c(OC)cc(N3CCC(N)CC3)nc2-c2ccc(C#N)c(F)c2)cc1OCCNCc1ccc(/C=C/C(=O)NO)cc1 [Example 30, (E)-3-(4-((2-(5-(6-(4-Aminopiperidin-1-yl)-2-(4-cyano-3-fluorophenyl)-4-methoxypyridin-3-yl)-2-methoxyphenoxy)ethyl)amino)methyl)phenyl)-N-hydroxyacrylamide hydrochloride] |
| 0.45 | 2.75 | – | 1.49 | 1.98 | 64.9 | 28 | 82.1 | CC(C)(O)COc1ccc(-c2cnc(N3CCC(NCc4ccc(OCC(=O)NO)cc4)CC3)c(C#N)c2-c2ccc(C#N)c(F)c2)cc1O [Example 192, 2-(4-(((1-(3-cyano-4-(4-cyano-3-fluorophenyl)-5-(3-hydroxy-4-(2-hydroxy-2-methylpropoxy)phenyl)pyridin-2-yl)piperidin-4-yl)amino)methyl)phenoxy)-N-hydroxyacetamide formate] |
| 0.4 | 6.35 | – | 4.85 | 0.63 | 67.2 | 23.7 | 21.2 | CC(C)(O)COc1ccc(-c2cnc(N3CCC(NCc4ccc(/C=C(\F)C(=O)NO)cc4)CC3)c(C#N)c2-c2ccc(C#N)c(F)c2)cc1O [Example 198, (Z)-3-(4-(((1-(3-Cyano-4-(4-cyano-3-fluorophenyl)-5-(3-hydroxy-4-(2-hydroxy-2-methylpropoxy)phenyl)pyridin-2-yl)piperidin-4-yl)amino)methyl)phenyl)-2-fluoro-N-hydroxyacrylamide formate] |
| 0.54 | 2.77 | – | 1.92 | 2.78 | 33.9 | 9.24 | 4.05 | CC(C)(O)COc1ccc(-c2cnc(N3CCC(NCc4ccc(/C=C/C(=O)NO)nc4)CC3)c(C#N)c2-c2ccc(C#N)c(F)c2)cc1O [Example 199, (E)-3-(5-((1-(3-Cyano-4-(4-cyano-3-fluorophenyl)-5-(3-hydroxy-4-(2-hydroxy-2-methylpropoxy)phenyl)pyridin-2-yl)piperidin-4-yl)amino)methyl) pyridin-2-yl)-N-hydroxyacrylamide formate] |
| 0.45 | 4.18 | – | 2.95 | 2.27 | 127 | 5.16 | 4.1 | COc1ccc(-c2cnc(N3CCC(NCc4ccc(/C=C/C(=O)NO)c(F)c4)CC3)c(C#N)c2-c2ccc(C#N)c(F)c2)cc1O [Example 200, (E)-3-(4-(((1-(3-Cyano-4-(4-cyano-3-fluorophenyl)-5-(3-hydroxy-4-methoxyphenyl)pyridin-2-yl)piperidin-4-yl)amino)methyl)-2-fluorophenyl)-N-hydroxyacrylamide formate] |
| 0.22 | 7.71 | – | 4.81 | 3.33 | 438 | 56.4 | 20.5 | COc1ccc(-c2cnc(N3CCC(NCc4ccc(CCC(=O)NO)c(F)c4)CC3)c(C#N)c2-c2ccc(C#N)c(F)c2)cc1O [Example 201, 3-(4-((1-(3-Cyano-4-(4-cyano-3-fluorophenyl)-5-(3-hydroxy-4-methoxyphenyl)pyridin-2-yl)piperidin-4-yl)amino)methyl)-2-fluorophenyl)-N-hydroxypropanamide formate] |
| 74.2 | 1.85 | – | 0.88 | 6.15 | 9.03 | 13.6 | 4.35 | COc1ccc(-c2cnc(N3CCC(NCc4cnc(/C=C/C(=O)NO)nc4)CC3)c(C)c2-c2ccc(C#N)c(F)c2)cc1O [Example 202, (E)-3-(5-(((1-(4-(4-Cyano-3-fluorophenyl)-5-(3-hydroxy-4-methoxyphenyl)-3-methylpyridin-2-yl)piperidin-4-yl)amino)methyl)pyrimidin-2-yl)-N-hydroxyacrylamide formate] |
| 1.03 | 1.39 | – | 1.58 | 1.99 | 25.3 | 9.38 | 12.3 | N#Cc1ccc(-c2c(-c3ccc(N4CCOCC4)c(O)c3)cnc(N3CCC(NCc4ccc(/C=C/C(=O)NO)cc4)CC3)c2C#N)cc1F [Example 203, (E)-3-(4-(((1-(3-Cyano-4-(4-cyano-3-fluorophenyl)-5-(3-hydroxy-4-morpholinophenyl)pyridin-2-yl)piperidin-4-yl)amino)methyl)phenyl-N-hydroxyacrylamide formate] |
| 1.91 | 4.37 | – | 3.08 | 6.86 | 100 | 25.2 | 39.2 | CC(C)(O)COc1ccc(-c2cnc(N3CCC(NCc4ccc(/C=C/C(=O)NO)cn4)CC3)c(C#N)c2-c2ccc(C#N)c(F)c2)cc1O [Example 205, (E)-3-(6-(((1-(3-Cyano-4-(4-cyano-3-fluorophenyl)-5-(3-hydroxy-4-(2-hydroxy-2-methylpropoxy)phenyl)pyridin-2-yl)piperidin-4-yl)amino)methyl)pyridin-3-yl)-N-hydroxyacrylamide formate] |
| 2.03 | 11.5 | – | 32.9 | 6.21 | 32.5 | 94.7 | 106 | COc1ccc(-c2cnc(N3CCC(C)(NCc4cnc(/C=C/C(=O)NO)nc4)CC3)c(C#N)c2-c2ccc(C#N)c(F)c2)cc1O [Example 206, (E)-3-(5-(((1-(3-Cyano-4-(4-cyano-3-fluorophenyl)-5-(3-hydroxy-4-methoxyphenyl)pyridin-2-yl)-4-methylpiperidin-4-yl)amino)methyl)pyrimidin-2-yl)-N-hydroxyacrylamide formate] |
| 6.65 | 12.4 | – | 2.51 | 9.5 | 170 | 33.6 | 26.6 | Cc1c(N2CCC(NCc3ccc(/C=C/C(=O)NO)cc3)CC2)ncc(-c2ccc(OCC(C)(C)O)c(O)c2)c1-c1ccc(C#N)c(F)c1 [Example 207, (E)-3-(4-(((1-(4-(4-Cyano-3-fluorophenyl)-5-(3-hydroxy-4-(2-hydroxy-2-methylpropoxy)phenyl)-3-methylpyridin-2-yl)piperidin-4-yl)amino)methyl)phenyl)-N-hydroxyacrylamide hydrochloride] |
| 0.73 | 1.13 | – | 1.74 | 2.2 | 17.2 | 4.62 | 3.82 | COc1ccc(-c2cnc(N3CCC(NCc4ccc(/C=C/C(=O)NO)cc4)CC3)c(C#N)c2-c2ccc(C#N)nc2)cc1O [Example 208, (E)-3-(4-(((1-(3′,6-Dicyano-5′-(3-hydroxy-4-methoxyphenyl)-[3,4′-bipyridin]-2′-yl)piperidin-4-yl)amino)methyl)phenyl)-N-hydroxyacrylamide] |
| 1.13 | 2.5 | – | 4.44 | 3.53 | 456 | 15.1 | 5.86 | COc1ccc(-c2cnc(N3CCC(NC(C)c4ccc(/C=C/C(=O)NO)cc4)CC3)c(C#N)c2-c2ccc(C#N)c(F)c2)cc1O (centres unmarked) [Example 210, (E)-3-(4-(1-((1-(3-Cyano-4-(4-cyano-3-fluorophenyl)-5-(3-hydroxy-4-methoxyphenyl)pyridin-2-yl)piperidin-4-yl)amino)ethyl)phenyl)-N-hydroxyacrylamide formate] |
| 1.76 | 2.23 | – | 0.43 | 10.2 | 42.1 | 3.81 | 8.35 | COc1ccc(-c2cnc(N3CCC(NCc4ccc(/C=C/C(=O)NO)cc4)CC3)c(CC#N)c2-c2ccc(C#N)c(F)c2)cc1O [Example 233, (E)-3-(4-(((1-(4-(4-cyano-3-fluorophenyl)-3-(cyanomethyl)-5-(3-hydroxy-4-methoxyphenyl)pyridin-2-yl)piperidin-4-yl)amino)methyl)phenyl)-N-hydroxyacrylamide formate] |
